From patent US10501518B2 (priority 2013, dated 2019)
Read-outs that look alike come from different tables or passages of the source.

Key:
R^0 form of rat PTHR-1 = biological target: T1, R^0 form of rat PTHR-1 (Rattus norvegicus, UniProt P25961); assay: Radio-ligand competition binding to R^0 form of rat PTHR-1; details: for R^0/RG: ratio of R^0 to RG IC50, rat PTHR-1; for affinity for the R^0 state of rPTHR-1, in words: compared with PTH(1-34)
T1 construct: expressed in transfected cells; host or cells: COS-7
T1 sequence (P25961 27-591): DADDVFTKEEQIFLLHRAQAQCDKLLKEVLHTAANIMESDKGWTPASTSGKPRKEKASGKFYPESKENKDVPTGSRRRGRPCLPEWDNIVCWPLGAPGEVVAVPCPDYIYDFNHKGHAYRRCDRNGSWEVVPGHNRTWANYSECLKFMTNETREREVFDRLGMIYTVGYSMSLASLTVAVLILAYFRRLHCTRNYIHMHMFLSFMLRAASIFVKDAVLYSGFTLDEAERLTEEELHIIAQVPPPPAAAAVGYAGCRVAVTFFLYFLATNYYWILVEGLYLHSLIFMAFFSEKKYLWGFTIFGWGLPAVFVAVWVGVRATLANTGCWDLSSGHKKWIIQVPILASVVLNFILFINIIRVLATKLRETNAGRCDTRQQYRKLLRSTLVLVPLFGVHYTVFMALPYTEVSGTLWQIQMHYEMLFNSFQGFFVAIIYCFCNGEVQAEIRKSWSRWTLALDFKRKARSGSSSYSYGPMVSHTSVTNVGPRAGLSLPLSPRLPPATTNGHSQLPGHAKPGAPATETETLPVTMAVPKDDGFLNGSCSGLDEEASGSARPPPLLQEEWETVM
Excerpt: Data are means (±SEM) of n≥4 experiments, each performed in duplicate.

WT human PTHR-1 = biological target: T2, WT human PTHR-1 (Homo sapiens, UniProt Q03431); assay: cAMP GloSensor dose-response in GP-2.3 cells expressing human PTHR-1; format: cell-based; details: for cAMP (hPTHR-1) Max: luminescence counts per second relative to PTH(1-34); for cAMP (hPTHR-1) Max / Max: 12-16 minutes after ligand addition; for Fold nM PTH(1-34): EC50 relative to PTH(1-34)
T2 construct: bioactivity of the resulting compound in full-length hPTHR-1 and a truncated version; expressed in transfected cells
T2 sequence (Q03431 27-593): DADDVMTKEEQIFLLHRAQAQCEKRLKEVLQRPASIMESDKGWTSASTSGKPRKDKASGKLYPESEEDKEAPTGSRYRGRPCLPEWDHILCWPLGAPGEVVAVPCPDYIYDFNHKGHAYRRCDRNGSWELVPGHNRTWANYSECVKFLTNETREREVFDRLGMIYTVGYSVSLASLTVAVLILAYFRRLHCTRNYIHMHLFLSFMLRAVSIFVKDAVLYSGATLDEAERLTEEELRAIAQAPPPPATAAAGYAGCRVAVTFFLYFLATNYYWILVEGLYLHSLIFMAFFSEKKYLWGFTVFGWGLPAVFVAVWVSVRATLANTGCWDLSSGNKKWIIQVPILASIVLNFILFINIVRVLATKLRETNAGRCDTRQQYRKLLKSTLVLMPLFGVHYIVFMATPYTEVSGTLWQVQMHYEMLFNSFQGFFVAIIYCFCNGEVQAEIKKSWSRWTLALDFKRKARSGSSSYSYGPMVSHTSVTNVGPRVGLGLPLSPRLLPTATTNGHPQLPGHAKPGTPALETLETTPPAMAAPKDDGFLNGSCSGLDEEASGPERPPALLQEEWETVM
Method in brief: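 Confluent cells preloaded with 0.5 mM d-luciferin at room temperature until luminescence baseline stabilised (30 min), then given varying agonist concentrations. Luminescence time course recorded after α/β-peptide addition. Means ±SEM of n>4 experiments, each in duplicate.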

trypsin = biological target: T3, trypsin (Bos taurus, UniProt P00760); assay: Protease stability (trypsin, HPLC assay); format: in vitro ADME, bovine; details: 40 μM peptide, 5 μg/mL trypsin, TBS, room temperature
T3 construct: purchased Sigma Aldrich (St. Louis, Mo.); host or cells: bovine pancreas
T3 sequence (P00760 24-246): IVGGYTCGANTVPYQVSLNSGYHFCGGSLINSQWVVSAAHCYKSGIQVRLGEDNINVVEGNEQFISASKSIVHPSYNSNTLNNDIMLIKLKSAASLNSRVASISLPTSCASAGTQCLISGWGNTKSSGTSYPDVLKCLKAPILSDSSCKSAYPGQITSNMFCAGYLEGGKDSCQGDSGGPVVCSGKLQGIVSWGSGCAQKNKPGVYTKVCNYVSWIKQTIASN
Method: Locations of β^3 residues in B5 and D6 are indicated by highlighted residues. Solutions of 40 μM peptide in TBS were incubated at room temperature with 5 μg/mL trypsin. Vertical lines indicate observation by MALDI-MS of one or both products consistent with hydrolysis of the backbone amide bond between the noted residues. […] Each data point represents the average of measurements from duplicate experiments, with error bars corresponding to the standard deviation.
An HPLC assay was used to assess proteolytic stability.^30, 32 Peptide concentration was determined by UV-Vis spectroscopy (calculated from the UV-vis absorption at 280 nm, ε280 nm=5,690 M^−1 cm^−1 for all peptides except D6 and D7, ε280 nm=11,380 M^−1 cm^−1 based on an extinction coefficient for the tryptophan sidechain chromophore of 5,690 M^−1 cm^−1).^33 Peptide stock solutions were prepared in degassed water to a concentration of 200 μM. […] A portion (75 μL) of the quenched reaction mixture was injected onto an analytical RP-HPLC (see peptide synthesis and purification section above), and peaks were analyzed. The time course of peptide degradation was experimentally determined by integrating the area of the peak corresponding to the non-hydrolyzed peptide in a series of HPLC traces, with duplicate proteolysis reactions being used to generate error bars corresponding to the standard deviation. […]

[1] = Table 2, read-out: R^0 IC50, nM, Binding (rPTHR-1)
[2] = Table 5, rat PTHR-1, mean ± SEM, read-out: R^0 -log (IC50) (converted)
[3] = Table 6, GP-2.3 cells, mean ± SEM

cAMP (hPTHR-1) Max (WT human PTHR-1; Table 1)	EC50 (WT human PTHR-1; Table 1, GP-2.3 cells, read-out: cAMP (hPTHR-1) EC50)	SMILES	IC50 (R^0 form of rat PTHR-1; [1])	IC50 (R^0 form of rat PTHR-1; [2])	R^0/RG (R^0 form of rat PTHR-1; Table 5)	affinity for the R^0 state of rPTHR-1, in words (R^0 form of rat PTHR-1)	Fold nM PTH(1-34) (WT human PTHR-1; Table 6)	Max (WT human PTHR-1; [3])	pEC50 (WT human PTHR-1; [3])	proteolysis by trypsin (trypsin)
0.98	0.11 nM	CC[C@H](C)[C@H](NC(=O)[C@H](CCC(=O)O)NC(=O)[C@H](CO)NC(=O)[C@@H](NC(=O)[C@@H](N)CO)C(C)C)C(=O)N[C@@H](CCC(N)=O)C(=O)N[C@@H](CC(C)C)C(=O)N[C@@H](CCSC)C(=O)N[C@@H](Cc1c[nH]cn1)C(=O)N[C@@H](CC(N)=O)C(=O)N[C@@H](CC(C)C)C(=O)NCC(=O)N[C@@H](CCCCN)C(=O)N[C@@H](Cc1c[nH]cn1)C(=O)N[C@@H](CC(C)C)C(=O)N[C@@H](CC(N)=O)CC(=O)N[C@@H](CO)C(=O)N[C@@H](CCSC)C(=O)N[C@@H](CCC(=O)O)C(=O)N[C@@H](CCCNC(=N)N)CC(=O)N[C@H](C(=O)N[C@@H](CCC(=O)O)C(=O)N[C@@H](Cc1c[nH]c2ccccc12)C(=O)N[C@H](CC(=O)N[C@@H](CCCNC(=N)N)C(=O)N[C@@H](CCCCN)C(=O)N[C@@H](CCCCN)C(=O)N[C@H](CC(=O)N[C@@H](CCC(N)=O)C(=O)N[C@@H](CC(=O)O)C(=O)N[C@H](C(=O)N[C@@H](CCC(N)=O)CC(=O)N[C@@H](CC(N)=O)C(=O)N[C@@H](Cc1ccccc1)C(N)=O)C(C)C)CC(C)C)CC(C)C)C(C)C [B5]	65 nM	66.1 nM	15	significantly weaker affinity	0.63	212 ± 30 luminescence counts per second × 10^−3	–	–
1.00	–	CC[C@H](C)[C@H](NC(=O)[C@H](CCC(=O)O)NC(=O)[C@H](CO)NC(=O)[C@@H](NC(=O)[C@@H](N)CO)C(C)C)C(=O)N[C@@H](CCC(N)=O)C(=O)N[C@@H](CC(C)C)C(=O)N[C@@H](CCSC)C(=O)N[C@@H](Cc1cnc[nH]1)C(=O)N[C@@H](CC(N)=O)C(=O)N[C@@H](CC(C)C)C(=O)NCC(=O)N[C@@H](CCCCN)C(=O)N[C@@H](Cc1cnc[nH]1)C(=O)N[C@@H](CC(C)C)C(=O)N[C@@H](CC(N)=O)C(=O)N[C@@H](CO)C(=O)N[C@@H](CCSC)C(=O)N[C@@H](CCC(=O)O)C(=O)N[C@@H](CCCN=C(N)N)C(=O)N[C@H](C(=O)N[C@@H](CCC(=O)O)C(=O)N[C@@H](Cc1c[nH]c2ccccc12)C(=O)N[C@@H](CC(C)C)C(=O)N[C@@H](CCCN=C(N)N)C(=O)N[C@@H](CCCCN)C(=O)N[C@@H](CCCCN)C(=O)N[C@@H](CC(C)C)C(=O)N[C@@H](CCC(N)=O)C(=O)N[C@@H](CC(=O)O)C(=O)N[C@H](C(=O)N[C@@H](Cc1cnc[nH]1)C(=O)N[C@@H](CC(N)=O)C(=O)N[C@@H](Cc1ccccc1)C(=O)O)C(C)C)C(C)C [PTH(1-34), reference compound]	–	–	–	–	–	217 ± 20 luminescence counts per second × 10^−3	–	Proteolysis was observed at all predicted trypsin cut sites

SMILES	cAMP (hPTHR-1) Max (WT human PTHR-1; Table 1)	EC50 (WT human PTHR-1; Table 1, GP-2.3 cells, read-out: cAMP (hPTHR-1) EC50)	IC50 (R^0 form of rat PTHR-1; [1])	IC50 (R^0 form of rat PTHR-1; [2])	R^0/RG (R^0 form of rat PTHR-1; Table 5)	affinity for the R^0 state of rPTHR-1, in words (R^0 form of rat PTHR-1)	Fold nM PTH(1-34) (WT human PTHR-1; Table 6)	Max (WT human PTHR-1; [3])	pEC50 (WT human PTHR-1; [3])	proteolysis by trypsin (trypsin)
CC[C@H](C)[C@H](NC(=O)[C@H](CCC(=O)O)NC(=O)[C@H](CO)NC(=O)[C@@H](NC(=O)[C@@H](N)CO)C(C)C)C(=O)N[C@@H](CCC(N)=O)C(=O)N[C@@H](CC(C)C)C(=O)N[C@@H](CCSC)C(=O)N[C@@H](Cc1cnc[nH]1)C(=O)N[C@@H](CC(N)=O)C(=O)N[C@@H](CC(C)C)C(=O)NCC(=O)N[C@@H](CCCCN)C(=O)N[C@H](CC(=O)N[C@@H](CC(C)C)C(=O)N[C@@H](CC(N)=O)C(=O)N[C@@H](CO)C(=O)N[C@@H](CCSC)CC(=O)N[C@@H](CCC(=O)O)C(=O)N[C@@H](CCCNC(=N)N)C(=O)N[C@H](C(=O)N[C@@H](CCC(=O)O)CC(=O)N[C@@H](Cc1c[nH]c2ccccc12)C(=O)N[C@@H](CC(C)C)C(=O)N[C@@H](CCCNC(=N)N)C(=O)N[C@@H](CCCCN)CC(=O)N[C@@H](CCCCN)C(=O)N[C@@H](CC(C)C)C(=O)N[C@@H](CCC(N)=O)C(=O)N[C@@H](CC(=O)O)CC(=O)N[C@H](C(=O)N[C@@H](Cc1cnc[nH]1)C(=O)N[C@@H](CC(N)=O)C(=O)N[C@H](CC(N)=O)Cc1ccccc1)C(C)C)C(C)C)Cc1c[nH]c2ccccc12 [D6]	0.87	–	6.1 nM	6.03 nM	8	somewhat weaker affinity	0.76	189 ± 29 luminescence counts per second × 10^−3	9.89 ± 0.08	poorer substrate than is the α-peptide
